Results reported in patent publication US20080249317A1 (APOTEX INC., priority 2007, published 2008).
Structures can show the parent of a compound that is named as a salt.

Columns and labels:
[1] = acidic medium such as gastric fluid; background statement; cited from earlier work
[2] = Dissolution of 1 gram of crystalline carvedilol phosphate in methanol; format: physicochemical
From the text: The improved solubility by the addition of acetic acid is exemplified by the following results.

Compound | solubility [1] | methanol in which a solution was formed ([2]; containing 2% acetic acid (w/w relative to the carvedilol), solution formed rapidly) [mL] | methanol required for dissolution ([2]; in the absence of acetic acid)
COc1ccccc1OCCNCC(O)COc1cccc2[nH]c3ccccc3c12 (stereo not drawn) [hydrochloride salt, 1,1-(9H-Carbazol-4-yloxy)-3-[[2-(2-methoxyphenoxy)ethyl]amino]-2-propanol] | reduced solubility | – | –
carvedilol phosphate [crystalline carvedilol phosphate] | – | 3 | about 100 mL
